We go through one molecule from publication PMC9120478 (Nature Communications, 2022).

Numbering of substitutions follows the chain as printed.

The target in one assay is T1, F666A mutant TRPV3 (Mus musculus, UniProt Q8K424, F666A).
T1 construct: expressed in transfected cells; host or cells: HEK 293 S GnTI- cells (baculovirus transduction)
T1 sequence (Q8K424 1-791 F666A): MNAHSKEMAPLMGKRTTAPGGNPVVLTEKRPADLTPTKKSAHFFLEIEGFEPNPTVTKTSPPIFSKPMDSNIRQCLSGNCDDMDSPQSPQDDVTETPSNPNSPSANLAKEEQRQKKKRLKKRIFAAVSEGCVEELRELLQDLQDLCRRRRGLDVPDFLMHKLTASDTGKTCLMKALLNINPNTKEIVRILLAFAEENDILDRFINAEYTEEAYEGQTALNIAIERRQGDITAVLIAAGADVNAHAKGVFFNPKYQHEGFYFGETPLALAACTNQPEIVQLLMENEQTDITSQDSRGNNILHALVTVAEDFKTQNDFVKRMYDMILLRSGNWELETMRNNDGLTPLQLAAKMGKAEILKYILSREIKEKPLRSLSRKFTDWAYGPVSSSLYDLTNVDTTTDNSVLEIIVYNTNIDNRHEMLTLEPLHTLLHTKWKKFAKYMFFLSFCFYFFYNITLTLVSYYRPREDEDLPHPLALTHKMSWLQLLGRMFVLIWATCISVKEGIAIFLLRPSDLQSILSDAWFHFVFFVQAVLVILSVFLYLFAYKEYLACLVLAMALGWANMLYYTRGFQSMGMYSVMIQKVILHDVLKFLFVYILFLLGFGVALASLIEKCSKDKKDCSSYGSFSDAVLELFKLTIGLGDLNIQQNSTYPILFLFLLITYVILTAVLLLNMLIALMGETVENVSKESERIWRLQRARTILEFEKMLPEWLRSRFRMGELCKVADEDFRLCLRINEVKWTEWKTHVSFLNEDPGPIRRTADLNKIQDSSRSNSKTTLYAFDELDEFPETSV
In words: Fura-2 ratiometric Ca2+ uptake, inhibition of 2-APB-evoked response. Format: cell-based. Particulars: n = 3. As for the experimental part:
GFP-free C-terminally strep-tagged wild-type TRPV3, TRPV3-Y564A, TRPV3-Y594A, TRPV3-F633A, TRPV3-I663W, and TRPV3-F666A were expressed in HEK 293 S GnTI^− cells as previously described[41],[42],[53]. In short, 48 h after transduction, 1-ml aliquots of cell suspension were collected by centrifugation at 550 g for 5 min using an Eppendorf 5424 centrifuge. The cells were resuspended in the pre-warmed modified HEPES-buffered saline (HBS) containing 118 mM NaCl, 4.8 mM KCl, 1 mM MgCl2, 5 mM D-glucose, and 10 mM HEPES pH 7.4 and 5 μg/ml Fura-2 AM (Thermo Fisher Scientific) and incubated for 45 min at 37 °C. The Fura-2-loaded cells were then centrifuged for 5 min at 550 g, resuspended in the pre-warmed, modified HBS and incubated again for 30 min at 37 °C in the dark. The cells were subsequently pelleted and washed twice in the modified HBS. The washed cell pellets were kept on ice in the dark before taking an aliquot for fluorescence measurements. […] We used the lower CaCl2 concentration than before[42],[28] (2.5 mM) to minimize non-specific effects, which often appeared as a drift in the Fura-2 signal at high Ca^2+ concentration, presumably due to cell death as a result of calcium overload. Fluorescence measurements were conducted using a QuantaMaster 40 spectrofluorometer (Photon Technology International) at room temperature in a quartz cuvette under constant stirring. After 60 s since the beginning, the recording was paused and 2-APB was added. After the addition of 2-APB, the recording was continued for the additional 140 s. Changes in intracellular Ca^2+ were measured by taking the ratio of fluorescence emitted at 510 nm at the excitation wavelength of 340 nm and 380 nm. […] The data were processed using Origin 9.0 (OriginLab) software.

The next assay deals with T2, TRPV3-Y564A (Mus musculus, UniProt Q8K424, Y564A).
T2 construct: expressed in transfected cells; host or cells: HEK 293 S GnTI- cells (baculovirus transduction)
T2 sequence (Q8K424 1-791 Y564A): T1 sequence (Q8K424 1-791 F666A) with Y564A, A666F
The description is as above. Format: cell-based. As for the experimental part:
The Y564A mutation increases affinity to the TRPV3 agonist 2-APB[42] and decreases affinity to the competitive antagonist osthole.
GFP-free C-terminally strep-tagged wild-type TRPV3, TRPV3-Y564A, TRPV3-Y594A, TRPV3-F633A, TRPV3-I663W, and TRPV3-F666A were expressed in HEK 293 S GnTI^− cells as previously described[41],[42],[53]. In short, 48 h after transduction, 1-ml aliquots of cell suspension were collected by centrifugation at 550 g for 5 min using an Eppendorf 5424 centrifuge. The cells were resuspended in the pre-warmed modified HEPES-buffered saline (HBS) containing 118 mM NaCl, 4.8 mM KCl, 1 mM MgCl2, 5 mM D-glucose, and 10 mM HEPES pH 7.4 and 5 μg/ml Fura-2 AM (Thermo Fisher Scientific) and incubated for 45 min at 37 °C. The Fura-2-loaded cells were then centrifuged for 5 min at 550 g, resuspended in the pre-warmed, modified HBS and incubated again for 30 min at 37 °C in the dark. […] The washed cell pellets were kept on ice in the dark before taking an aliquot for fluorescence measurements. […] Fluorescence measurements were conducted using a QuantaMaster 40 spectrofluorometer (Photon Technology International) at room temperature in a quartz cuvette under constant stirring. […] Changes in intracellular Ca^2+ were measured by taking the ratio of fluorescence emitted at 510 nm at the excitation wavelength of 340 nm and 380 nm. […]

As usually defined, the IC50 is the concentration at which inhibition is half-maximal. As for `CCCCOc1ccc(C(=O)CCN2CCCCC2)cc1` [dyclonine, 1-(4-butoxyphenyl)-3-piperidin-1-ylpropan-1-one], the IC50 at F666A mutant TRPV3 (HEK 293 GnTI- cells, 200 µM 2-APB after pre-incubation with inhibitor) came out at 673 ± 37 µM; on TRPV3-Y564A (200 µM 2-APB, n = 4, negative control mutant), 31.5 ± 1 µM. Besides, on F666A mutant TRPV3 (logistic fit), the “nHill of inhibition curve, F666A” value worked out at 2.07 ± 0.08. In addition, the “nHill of inhibition curve, Y564A” value on TRPV3-Y564A (logistic fit, n = 4) is reported as 2.33 ± 0.11.
